Measurements from US20240391889A1, “ANTIMICROBIAL COMPOUNDS AND THE METHODS OF USE” (priority 2021, published 2024).
Values after ≈ are worked out from the molar mass of the structure shown. Read-outs that look alike come from different tables or passages of the source. Numbered stars: 1 amine (or outer) side, 2 acyl side, 3 side chain; on linkers, the order of the positions; unused ones are H or OH. Square brackets hold non-standard residues; d marks the D form. Peptide text beside a SMILES is read from it. N(tridecyl)Gly = CCCCCCCCCCCCCNCC(=O)O; X1 = CC(c1ccccc1)N(CC(=O)[*:2])[*:1]; NFurfurylGly = O=C(O)CNCc1ccco1; Gly(N(CH2)3NH2) = NCCCNCC(=O)O; Nphe = O=C(O)CNCc1ccccc1; NPrGly = CCCNCC(=O)O; Nlys = NCCCCNCC(=O)O

Assays:
[1] = tested on: Acinetobacter baumanii ATCC 19606; format: cell-based, Acinetobacter baumannii; details: ATCC 19606, 24 h
From the text: (§1) This screening led to the discovery of RMG9-11 (FIG. 2C). The minimum inhibitory concentration (MIC) of resynthesized RMG9-11 was initially determined against C. albicans, C. neoformans, and the ESKAPE bacteria via CSLI guidelines (CLSI. Methods for Dilution Antimicrobial Susceptibility Tests for Bacteria That Grow Aerobically, 11th Edition. Clinical and Laboratory Standards Institute (2018); CLSI. Reference method for broth dilution antifungal susceptibility testing of yeasts; approved standard-third edition; CLSI document M27-A3. Clinical and Laboratory Standards Institute (2008)). […]
(§2) The minimum inhibitory concentration (MIC) of peptoids against the ESKAPE bacteria (Enterococcus faecium ATCC 6569; Staphylococcus aureus ATCC 29213; Klebsiella pneumoniae ATCC 13883; Acinetobacter baumanii ATCC 19606; Pseudomonas aeruginosa ATCC 25619; Enterococcus faecalis ATCC 29212; and Escherichia coli ATCC 25922) was determined following CLSI guidelines (CLSI. Methods for Dilution Antimicrobial Susceptibility Tests for Bacteria That Grow Aerobically, 11th Edition. Clinical and Laboratory Standards Institute, 2018). The MIC against Mycobacterium smegmatis was also determined following CLSI guidelines (Woods, G. L. et al. Susceptibility Testing of Mycobacteria, Nocardiae, and Other Aerobic Actinomycetes, 2nd edition. (2011)). […]

[2] = tested on: Klebsiella pneumoniae ATCC 13883; assay: Bacterial MIC assay, K. pneumoniae; format: cell-based; details: 24 h, CAMHB
From the text: as §1, §2

[3] = tested on: Enterococcus faecalis ATCC 29212; format: cell-based; details: 24 h, CAMHB
From the text: (§3) This screening led to the discovery of RMG9-11 (FIG. 2C). The minimum inhibitory concentration (MIC) of resynthesized RMG9-11 was initially determined against C. albicans, C. neoformans, and the ESKAPE bacteria via CSLI guidelines (CLSI. Methods for Dilution Antimicrobial Susceptibility Tests for Bacteria That Grow Aerobically, 11th Edition. Clinical and Laboratory Standards Institute (2018); CLSI. Reference method for broth dilution antifungal susceptibility testing of yeasts; approved standard-third edition; CLSI document M27-A3. Clinical and Laboratory Standards Institute (2008)). […] C. albicans clinical isolates include a reference strain (M1), fluconazole susceptible strains (M4 and M6), and fluconazole resistant strains (M2, M3, M5, and M7). ATCC 64124 is multidrug resistant C. albicans strain that is resistant to amphotericin B, fluconazole, caspofungin, and flucytosine. All MICs were performed under CSLI guidelines in triplicate on at least three different days.
(§4) The minimum inhibitory concentration (MIC) of peptoids against the ESKAPE bacteria (Enterococcus faecium ATCC 6569; Staphylococcus aureus ATCC 29213; Klebsiella pneumoniae ATCC 13883; Acinetobacter baumanii ATCC 19606; Pseudomonas aeruginosa ATCC 25619; Enterococcus faecalis ATCC 29212; and Escherichia coli ATCC 25922) was determined following CLSI guidelines (CLSI. Methods for Dilution Antimicrobial Susceptibility Tests for Bacteria That Grow Aerobically, 11th Edition. Clinical and Laboratory Standards Institute, 2018). The MIC against Mycobacterium smegmatis was also determined following CLSI guidelines (Woods, G. L. et al. Susceptibility Testing of Mycobacteria, Nocardiae, and Other Aerobic Actinomycetes, 2nd edition. (2011)). Colonies picked from streaked tryptic soy agar plates were added to tryptic soy broth (TSB) to achieve a turbidity of OD600=0.08-0.15. Inoculant was diluted 1:200 into cation adjust Mueller Hinton Broth (CAMHB) and 90 μL was plated into each well of a 96 well black-wall plate. 2-fold serial dilutions of 10× peptoid (10 μL) were added to each well in triplicate and incubated at 37° C. for 24 hours for the ESKAPE bacteria and 72 hours for M. smegmatis. Tetracycline (20 μg/mL) was used as a positive control with DI water was used as a vehicle control. Following incubation for the ESKAPE bacteria, PRESTO BLUE (10 μL) was added to each well and incubated at 37° C. for one hour before measuring fluorescence on a SPECTRAMAX M5 plate reader (Ex. 555 nm; Em. 585 nm). Following incubation for M. smegmatis, wells were scored following CLSI guidelines to determine MIC. This assay was repeated three times on separate days.

[4] = tested on: Staphylococcus aureus ATCC 29213; format: cell-based; details: 24 h, CAMHB
From the text: as §3, §4

[5] = tested on: Enterococcus faecium ATCC 6569; format: cell-based; details: ATCC 6569, 24 h
From the text: as §3, §4

[6] = tested on: Escherichia coli ATCC 25922; format: cell-based; details: 24 h, CAMHB
From the text: as §3, §4

[7] = tested on: Pseudomonas aeruginosa ATCC 25619; format: cell-based; details: ATCC 25619, 24 h
From the text: as §3, §4

[8] = tested on: C. glabrata; format: cell-based, Candida glabrata
[9] = tested on: C. krusie; format: cell-based, Candida krusie
[10] = tested on: C. albicans; format: cell-based, Candida albicans
From the text: One of the most serious crises facing both new and existing antimicrobial compounds is the rapid development of resistance by pathogens to that compound, rendering it useless. This has been an issue observed with all major commercially available antimicrobial drugs and is an increasingly prevalent issue with antifungal drugs (Clatworthy et al., Nat. Chem. Biol. 3, 541-548 (2007); Wiederhold et al., Infect. Drug Resist. 10, 249-259 (2017)). The ability of C. albicans to gain resistance against RMG9-11 was evaluated using two techniques; serial and single passage. Ching et al. described a method for single passage assessment of gain of resistance, which was used here with RMG9-11 (Ching et al., Sci. Rep. 10, 8754 (2020)). Briefly, a single colony of C. albicans was incubated overnight in RPMI-MOPS. Fungal cultures were then incubated for either 24 or 48 hours with concentrations of RMG9-11 ranging from 0 to 80% MIC. […]
Gain of resistance to RMG9-11 by C. albicans was determined using a serial passage assay following previously published methods.43 Single colonies of C. albicans from a frozen stock streak plate were added to a saline solution (0.85%) to achieve an OD530=0.15-0.25. […]

Which “MIC A. baumannii” value [1] does the source give for `CCCCCCCCCCCCCNCC(=O)N(CCC)CC(=O)N(CC(=O)N(CCCCN)CC(=O)N(CC(=O)N(CC(=O)N(CCCN)CC(N)=O)Cc1ccccc1)Cc1ccco1)C(C)c1ccccc1` (centres unmarked) [RMG9-11] (H-[N(tridecyl)Gly][NPrGly][X1][Nlys][NFurfurylGly][Nphe][Gly(N(CH2)3NH2)]-NH2) here?
Its value is 12.5 µg/mL (≈ 12 µM).

What about the “MIC K. pneumonia” value [2] of the same compound?
The value was 50 µg/mL (≈ 47.9 µM).

And the “MIC E. faecalis” value [3]?
The value was 6.25 µg/mL (≈ 5.99 µM).

And the “MIC S. aureus” value [4]?
Its value is 6.25 µg/mL (≈ 5.99 µM).

And the “MIC E. faecium” value [5]?
The value was 3.13 µg/mL (≈ 3 µM).

And the “MIC E. coli” value [6]?
The value was 6.25 µg/mL (≈ 5.99 µM).

And the “MIC P. aeruginosa” value [7]?
The value was 12.5 µg/mL (≈ 12 µM).

And the “MIC C. glabrata” value [8]?
The value was 6.25 µg/mL (≈ 5.99 µM).

What about the “MIC C. krusie” value [9] of the same compound?
The value was 3.13 µg/mL (≈ 3 µM).

And the “Serial Passage MIC” value ([10]; Treated: serial passage with 1 to 25% MIC RMG9-11)?
The value was 6.25 µg/mL.

And the “Serial Passage MIC” value ([10]; Untreated C. albicans)?
Its value is 6.25 µg/mL.
